Results reported in patent US11168086B2, “Methods of synthesizing pyrazine compounds” (Hoffmann-La Roche Inc., priority 2015, dated 2021).

System: HBV
Experiment: HBV inhibition assay: anti-HBV activity in vitro in HepG2.2.15 cells (extracellular HBV DNA by qPCR)
Type: cell-based
Settings: Hepatitis B virus, 120 h, five days after compound treatment, extracellular HBV DNA in culture supernatant by qPCR, concentration at which HBV replication is inhibited by 50%
Description: Example 441: HBV Inhibition Assays
Cell Line and Culture Conditions:
HepG2.2.15 is a stably-transfected cell line containing the HBV genome. It is derived from the hepatoblastoma cell line Hep G2 (American Type Culture Collection, ATCC® HB-8065™) by the published procedures described in reference: MA Selles et al. Proc. Natl. Acad. Sci. USA 1987, 84, 1005-1009. The cell line was maintained in Dulbecco's modified Eagle's medium (DMEM)-F12 medium supplemented with 10% fetal bovine serum, 100 U/mL penicillin, 100 μg/mL streptomycin, and 0.5 mg/mL of G418.
Anti-HBV Activity In Vitro:
HepG2.2.15 cells were seeded into 96-well plates (3×10^4 cells in 100 μL media per well) and incubated overnight at 37° C. The test compounds were serially half-log diluted in DMSO, then diluted 100 times in culture media. 100 μL diluted compounds were added into the plates to reach 0.5% final concentration of DMSO in every well. Five days after compound treatment, culture supernatant was collected for further analysis.
For quantitative PCR detection of extracellular HBV DNA, culture supernatant was processed by Proteinase K digestion. After heat inactivation of the enzyme, the samples were subjected to HBV DNA quantification by qPCR. The effective compound concentration at which
HBV replication is inhibited by 50% (EC50) was determined.

C[C@@H]1CN(C(=O)C2CC(=O)N(c3cnn4c3CN(C(=O)Nc3cc(F)c(F)c(F)c3)[C@@H](C)C4)C2)C[C@@H](C)O1 (stereo partly drawn) [Example 396, (6S)-3-[4-[trans-2,6-dimethylmorpholine-4-carbonyl]-2-oxo-pyrrolidin-1-yl]-6-methyl-N-(3,4,5-trifluorophenyl)-6,7-dihydro-4H-pyrazolo[1,5-a]pyrazine-5-carboxamide]
EC50: 58 nM

CC1Cn2ncc(N3CCCC3=O)c2CN1C(=O)Nc1ccc(F)c(C(F)(F)F)c1 (stereo not shown) [Example 203, N-[4-fluoro-3-(trifluoromethyl)phenyl]-6-methyl-3-(2-oxopyrrolidin-1-yl)-6,7-dihydro-4H-pyrazolo[1,5-a]pyrazine-5-carboxamide]
EC50: 97 nM

CC1Cn2ncc(N3CCOC3=O)c2CN1C(=O)Nc1ccc(F)c(Cl)c1 (stereo not shown) [Example 237, N-(3-chloro-4-fluoro-phenyl)-6-methyl-3-(2-oxooxazolidin-3-yl)-6,7-dihydro-4H-pyrazolo[1,5-a]pyrazine-5-carboxamide]
EC50: 74 nM

Cc1nnc(C2(C)CC(=O)N(c3cnn4c3CN(C(=O)Nc3cc(F)c(F)c(F)c3)[C@@H](C)C4)C2)o1 (stereo partly drawn) [Example 403, (6S)-6-methyl-3-[4-methyl-4-(5-methyl-1,3,4-oxadiazol-2-yl)-2-oxo-pyrrolidin-1-yl]-N-(3,4,5-trifluorophenyl)-6,7-dihydro-4H-pyrazolo[1,5-a]pyrazine-5-carboxamide]
EC50: 31 nM

CC1CC(=O)N(c2cnn3c2CN(C(=O)Nc2ccc(F)c(Cl)c2)[C@@H](C)C3)C1 (stereo partly drawn) [Example 254, (6S)—N-(3-chloro-4-fluoro-phenyl)-6-methyl-3-(4-methyl-2-oxo-pyrrolidin-1-yl)-6,7-dihydro-4H-pyrazolo[1,5-a]pyrazine-5-carboxamide]
EC50: 39 nM

CC1Cn2ncc(-c3ccc(F)cn3)c2CN1C(=O)Nc1ccc(F)c(Cl)c1 (stereo not shown) [Example 94, N-(3-chloro-4-fluoro-phenyl)-3-(5-fluoro-2-pyridyl)-6-methyl-6,7-dihydro-4H-pyrazolo[1,5-a]pyrazine-5-carboxamide]
EC50: 33 nM

C[C@H]1Cn2ncc(N3CC(c4ccccc4)CC3=O)c2CN1C(=O)Nc1cc(F)c(F)c(F)c1 (stereo partly drawn) [Example 309, (6S)-6-methyl-3-(2-oxo-4-phenyl-pyrrolidin-1-yl)-N-(3,4,5-trifluorophenyl)-6,7-dihydro-4H-pyrazolo[1,5-a]pyrazine-5-carboxamide]
EC50: 5 nM

C[C@H]1Cn2ncc(N3CC(c4nccs4)CC3=O)c2CN1C(=O)Nc1cc(F)c(F)c(F)c1 (stereo partly drawn) [Example 291, (6S)-6-methyl-3-(2-oxo-4-thiazol-2-yl-pyrrolidin-1-yl)-N-(3,4,5-trifluorophenyl)-6,7-dihydro-4H-pyrazolo[1,5-a]pyrazine-5-carboxamide]
EC50: 7 nM

Cc1noc(C2CC(=O)N(c3cnn4c3CN(C(=O)Nc3cc(F)c(F)c(F)c3)[C@@H](C)C4)C2)n1 (stereo partly drawn) [Example 284, (6S)-6-methyl-3-[4-(3-methyl-1,2,4-oxadiazol-5-yl)-2-oxo-pyrrolidin-1-yl]-N-(3,4,5-trifluorophenyl)-6,7-dihydro-4H-pyrazolo[1,5-a]pyrazine-5-carboxamide]
EC50: 10 nM

C[C@H]1Cn2ncc(N3CC(Cn4cccn4)CC3=O)c2CN1C(=O)Nc1cc(F)c(F)c(F)c1 (stereo partly drawn) [Example 268, (6S)-6-methyl-3-[2-oxo-4-(pyrazol-1-ylmethyl)pyrrolidin-1-yl]-N-(3,4,5-trifluorophenyl)-6,7-dihydro-4H-pyrazolo[1,5-a]pyrazine-5-carboxamide]
EC50: 96 nM

Cc1nc(C2(C)CC(=O)N(c3cnn4c3CN(C(=O)Nc3cc(F)c(F)c(F)c3)[C@@H](C)C4)C2)no1 (stereo partly drawn) [Example 406, (6S)-6-methyl-3-[4-methyl-4-(5-methyl-1,2,4-oxadiazol-3-yl)-2-oxo-pyrrolidin-1-yl]-N-(3,4,5-trifluorophenyl)-6,7-dihydro-4H-pyrazolo[1,5-a]pyrazine-5-carboxamide]
EC50: 6 nM

CC1Cn2ncc(N3CCCC3=O)c2CN1C(=O)Nc1ccc(F)c(Cl)c1 (stereo not shown) [Example 202, N-(3-chloro-4-fluoro-phenyl)-6-methyl-3-(2-oxopyrrolidin-1-yl)-6,7-dihydro-4H-pyrazolo[1,5-a]pyrazine-5-carboxamide]
EC50: 51 nM

C[C@H]1Cn2ncc(N3CC(C)(CO)CC3=O)c2CN1C(=O)Nc1cc(F)c(F)c(F)c1 (stereo partly drawn) [Example 362, (6S)-3-[4-(hydroxymethyl)-4-methyl-2-oxo-pyrrolidin-1-yl]-6-methyl-N-(3,4,5-trifluorophenyl)-6,7-dihydro-4H-pyrazolo[1,5-a]pyrazine-5-carboxamide]
EC50: 32 nM

O=C(Nc1ccc(F)c(C2CC2)c1)N1CCn2ncc(-c3ccc(F)cc3F)c2C1 [Example 150, N-(3-cyclopropyl-4-fluoro-phenyl)-3-(2,4-difluorophenyl)-6,7-dihydro-4H-pyrazolo[1,5-a]pyrazine-5-carboxamide]
EC50: 58 nM

C[C@H]1Cn2ncc(N3CCOCC3=O)c2CN1C(=O)Nc1cc(F)c(F)c(F)c1 [Example 233, (6S)-6-methyl-3-(3-oxomorpholin-4-yl)-N-(3,4,5-trifluorophenyl)-6,7-dihydro-4H-pyrazolo[1,5-a]pyrazine-5-carboxamide]
EC50: 76 nM

C[C@H]1Cn2ncc(N3CC(C)(C)OC3=O)c2CN1C(=O)Nc1cc(F)c(F)c(C(F)F)c1 [Example 276, (6S)—N-[3-(difluoromethyl)-4,5-difluoro-phenyl]-3-(5,5-dimethyl-2-oxo-oxazolidin-3-yl)-6-methyl-6,7-dihydro-4H-pyrazolo[1,5-a]pyrazine-5-carboxamide]
EC50: 6 nM

Cc1cc(NC(=O)N2CCn3ncc(-c4ccc(F)cc4)c3C2)ccn1 [Example 176, 3-(4-fluorophenyl)-N-(2-methyl-4-pyridyl)-6,7-dihydro-4H-pyrazolo[1,5-a]pyrazine-5-carboxamide]
EC50: 52 nM

O=C(Nc1cc(F)c(F)c(F)c1)N1CCn2cnc(-c3ccc(F)cc3F)c2C1 [Example 138, 1-(2,4-difluorophenyl)-N-(3,4,5-trifluorophenyl)-6,8-dihydro-5H-imidazo[1,5-a]pyrazine-7-carboxamide]
EC50: 37 nM

C[C@H]1Cn2ncc(N3CC(C)(C(=O)N4CCC(F)(F)CC4)CC3=O)c2CN1C(=O)Nc1cc(F)c(F)c(F)c1 (stereo partly drawn) [Example 401, (6S)-3-[4-(4,4-difluoropiperidine-1-carbonyl)-4-methyl-2-oxo-pyrrolidin-1-yl]-6-methyl-N-(3,4,5-trifluorophenyl)-6,7-dihydro-4H-pyrazolo[1,5-a]pyrazine-5-carboxamide]
EC50: 88 nM

C[C@H]1Cn2ncc(-c3ncc(F)cn3)c2CN1C(=O)Nc1cc(F)c(F)c(F)c1 [Example 341, (6S)-3-(5-fluoropyrimidin-2-yl)-6-methyl-N-(3,4,5-trifluorophenyl)-6,7-dihydro-4H-pyrazolo[1,5-a]pyrazine-5-carboxamide]
EC50: 40 nM

CC1Cn2ncc(-c3ccc(F)cc3F)c2CN1C(=O)Nc1ccnc(C(F)F)c1 (stereo not shown) [Example 218, N-[2-(difluoromethyl)-4-pyridyl]-3-(2,4-difluorophenyl)-6-methyl-6,7-dihydro-4H-pyrazolo[1,5-a]pyrazine-5-carboxamide]
EC50: 14 nM

CC1Cn2ncc(-c3ccc(F)cc3F)c2CN1C(=O)Nc1ccc(F)c(C#N)c1 (stereo not shown) [Example 85, N-(3-cyano-4-fluoro-phenyl)-3-(2,4-difluorophenyl)-6-methyl-6,7-dihydro-4H-pyrazolo[1,5-a]pyrazine-5-carboxamide]
EC50: 11 nM
